Experimental data: patent US20240400564A1 (Syndax Pharmaceuticals, Inc, priority 2021, published 2024)

Key:
[1] = tested on: MLLr leukemia cell line MV4-11; assay: Cell proliferation assay MV4;11 (CellTiter-Glo, 72 hours); type: cell-based; settings: Homo sapiens; MV4-11 cells, 72 hours, CellTiter-Glo; read-out: MV4; 11 IC50
Protocol: Compounds were evaluated for its capacity to inhibit the proliferation of the MLLr leukemia cell line MV4-11 that harbors an MLL1-AF4 fusion protein. MV4-11 cells were cultured for 72 hours with limiting dilutions of compounds and viability was measured using CellTiter-Glo.
Compounds were dissolved to obtain as 10 mM solution in DMSO. The stock was diluted 1:5 to the top concentration of 2 mM in 100% DMSO. For IC50 determination, serial 1:3.16 dilutions were prepared in 100% DMSO by diluting 20 μL into 43.5 μL of DMSO for 8 concentrations. Each prepared DMSO solution were further diluted 1:500 in the cell culture media to obtain the 2× dosing solutions. The final concentrations of tested compounds in the cell culture media ranged from 0.632 nM to 2000 nM.
MV4-11 cells were cultured in IMDM with 10% FBS and 1× Penicillin-Streptomycin at 5% CO2 and 37° C. A cell suspension was prepared containing 15,000 cells/ml in the culture medium and 100 μL of this suspension was added per well to a 96-well cell culture plate. Then, 100 μL of 2× dosing media containing test compounds were added bringing the total volume to 200 μL. These cells were cultured for 72 hours at 37° C. and 5% CO2 in a humidified incubator.
After 72 hours, the cultured cells were mixed and 100 μL was transferred to a 96-well black plate. Cell Titer Glo (100 μl) was then added to this plate. The plate was mixed with shaking for 15 mins at RT, the luminescence was then measured using Tecan Spark 20M spectrophotometer. Cell Viability (%) was determined by RLU of test/RLU average vehicle control*100 and % max inhibition was determined by 100−(% cell viability remaining at the top concentration of compound).

hERG = hERG (Homo sapiens, UniProt Q12809); assay: Patch clamp assay (hERG tail currents, whole-cell)
Chain of hERG (Q12809 whole entry): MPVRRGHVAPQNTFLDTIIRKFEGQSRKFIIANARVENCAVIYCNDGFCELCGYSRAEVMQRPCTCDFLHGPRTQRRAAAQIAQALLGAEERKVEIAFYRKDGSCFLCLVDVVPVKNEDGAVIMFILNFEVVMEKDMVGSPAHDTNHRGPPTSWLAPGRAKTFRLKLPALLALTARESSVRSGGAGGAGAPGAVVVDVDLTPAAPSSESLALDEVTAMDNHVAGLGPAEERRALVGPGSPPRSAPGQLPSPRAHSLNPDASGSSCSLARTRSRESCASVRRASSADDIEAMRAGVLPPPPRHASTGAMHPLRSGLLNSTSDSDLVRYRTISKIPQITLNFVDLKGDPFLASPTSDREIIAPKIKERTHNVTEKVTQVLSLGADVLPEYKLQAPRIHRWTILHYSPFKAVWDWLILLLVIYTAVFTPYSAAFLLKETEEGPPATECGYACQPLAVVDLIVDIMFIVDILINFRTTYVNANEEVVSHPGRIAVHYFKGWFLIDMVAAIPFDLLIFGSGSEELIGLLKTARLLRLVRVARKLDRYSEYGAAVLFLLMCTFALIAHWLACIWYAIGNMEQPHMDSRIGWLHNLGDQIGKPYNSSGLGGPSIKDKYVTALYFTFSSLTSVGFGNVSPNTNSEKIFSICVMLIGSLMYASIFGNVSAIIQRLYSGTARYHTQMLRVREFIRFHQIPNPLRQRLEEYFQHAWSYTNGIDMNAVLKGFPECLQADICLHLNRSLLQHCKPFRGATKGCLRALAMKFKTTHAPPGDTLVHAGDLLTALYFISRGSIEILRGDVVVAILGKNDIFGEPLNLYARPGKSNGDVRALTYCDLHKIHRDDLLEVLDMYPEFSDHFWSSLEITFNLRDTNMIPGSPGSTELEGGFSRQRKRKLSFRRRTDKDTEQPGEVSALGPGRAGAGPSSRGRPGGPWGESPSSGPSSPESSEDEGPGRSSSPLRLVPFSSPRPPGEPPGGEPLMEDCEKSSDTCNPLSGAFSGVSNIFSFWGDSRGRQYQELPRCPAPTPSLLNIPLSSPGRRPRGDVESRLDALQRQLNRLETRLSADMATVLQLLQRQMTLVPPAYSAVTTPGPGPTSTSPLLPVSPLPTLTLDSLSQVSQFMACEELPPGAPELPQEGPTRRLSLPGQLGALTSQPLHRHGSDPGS

| Compound | IC50 [1] | hERG % Remaining (hERG; 10 μM compound) | hERG % Remaining (hERG; 30 μM compound) |
| --- | --- | --- | --- |
| CC(C)N(C(=O)c1cc(F)ccc1Oc1cncnc1N1CC2(CCN(C[C@@H]3CC[C@@H](NS(=O)(=O)c4cnn(C5CC5)c4)CO3)CC2)C1)C(C)C [Example 83, 2-((4-(7-(((2S,5R)-5-((1-Cyclopropyl-1H-pyrazole)-4-sulfonamido)tetrahydro-2H-pyran-2-yl)methyl)-2,7-diazaspiro[3.5]nonan-2-yl)pyrimidin-5-yl)oxy)-5-fluoro-N,N-diisopropylbenzamide] | < 100 nM | +++ (≥66%) | ++ (233% and ≤66%) |
| CCN(C(=O)c1cc(F)ccc1Oc1cncnc1N1CC2(CCN(C[C@@H]3CC[C@@H](NS(=O)(=O)N4CCC[C@H]4C)CO3)CC2)C1)C(C)C [Example 200, N-Ethyl-5-fluoro-N-isopropyl-2-((4-(7-(((2S,5R)-5-(((R)-2-methylpyrrolidine)-1-sulfonamido)tetrahydro-2H-pyran-2-yl)methyl)-2,7-diazaspiro[3.5]nonan-2-yl)pyrimidin-5-yl)oxy)benzamide] | < 100 nM | ++ (233% and ≤66%) | + (<33%) |
| CCN(C(=O)c1cc(F)ccc1Oc1cncnc1N1CC2(CCN(C[C@@H]3CC[C@@H](NS(=O)(=O)c4cnn(C)c4)CO3)CC2)C1)C(C)C [Example 68, N-Ethyl-5-fluoro-N-isopropyl-2-((4-(7-(((2S,5R)-5-((1-methyl-1H-pyrazole)-4-sulfonamido)tetrahydro-2H-pyran-2-yl)methyl)-2,7-diazaspiro[3.5]nonan-2-yl)pyrimidin-5-yl)oxy)benzamide] | < 100 nM | +++ (≥66%) | +++ (≥66%) |
| CCN(C(=O)c1cc(F)ccc1Oc1cncnc1N1CC2(CCN(C[C@@H]3CC[C@@H](NS(=O)(=O)c4c[nH]c(=O)cc4C)CO3)CC2)C1)C(C)C [Example 75, N-Ethyl-5-fluoro-N-isopropyl-2-((4-(7-(((2S,5R)-5-((4-methyl-6-oxo-1,6-dihydropyridine)-3-sulfonamido)tetrahydro-2H-pyran-2-yl)methyl)-2,7-diazaspiro[3.5]nonan-2-yl)pyrimidin-5-yl)oxy)benzamide] | < 100 nM |  | +++ (≥66%) |
| CN=S(=O)(N[C@@H]1CC[C@@H](CN2CCC3(CC2)CN(c2ncncc2Oc2ccc(F)cc2C(=O)N(C(C)C)C(C)C)C3)OC1)c1ccccc1 (stereo partly drawn) [Example 232, 5-Fluoro-N,N-diisopropyl-2-((4-(7-(((2S,5R)-5-(N′-methylphenylsulfonoamidimidamido)tetrahydro-2H-pyran-2-yl)methyl)-2,7-diazaspiro[3.5]nonan-2-yl)pyrimidin-5-yl)oxy)benzamide] | 100 to 1000 nM |  |  |
| CCN(C(=O)c1cc(F)ccc1Oc1cncnc1N1CC2(CCN(C[C@@H]3CC[C@@H](NS(=O)(=O)N4CC(F)(F)C4)CO3)CC2)C1)C(C)C [Example 70, 2-((4-(7-(((2S,5R)-5-((3,3-Difluoroazetidine)-1-sulfonamido)tetrahydro-2H-pyran-2-yl)methyl)-2,7-diazaspiro[3.5]nonan-2-yl)pyrimidin-5-yl)oxy)-N-ethyl-5-fluoro-N-isopropylbenzamide] | < 100 nM |  |  |
| CC(C)N(C(=O)c1cc(F)ccc1Oc1cncnc1N1CC2(CCN(C[C@@H]3CC[C@@H](NS(=O)(=O)N4CCC[C@@H]4C)CO3)CC2)C1)C1CCOC1 (stereo partly drawn) [Example 206, 5-Fluoro-N-isopropyl-2-((4-(7-(((2S,5R)-5-(((S)-2-methylpyrrolidine)-1-sulfonamido)tetrahydro-2H-pyran-2-yl)methyl)-2,7-diazaspiro[3.5]nonan-2-yl)pyrimidin-5-yl)oxy)-N-((S)-tetrahydrofuran-3-yl)benzamide] | < 100 nM |  |  |
| CCS(=O)(=O)N[C@@H]1CC[C@@H](CN2CCC3(CC2)CN(c2ncncc2Oc2ccc(F)cc2C(=O)N(C(C)C)[C@@H]2CC[C@H]2O)C3)OC1 (single isomer, unassigned) [Example 256] | < 100 nM |  |  |
| CC(C)N(C(=O)c1cc(F)ccc1Oc1cncnc1N1CC2(CCN(C[C@@H]3CC[C@@H](NS(=N)(=O)c4ccccc4)CO3)CC2)C1)C(C)C (mixture of isomers) [Example 228, 5-Fluoro-N,N-diisopropyl-2-((4-(7-(((2S,5R)-5-(phenylsulfonoamidimidamido)tetrahydro-2H-pyran-2-yl)methyl)-2,7-diazaspiro[3.5]nonan-2-yl)pyrimidin-5-yl)oxy)benzamide] | < 100 nM |  |  |
| CCS(=O)(=O)N[C@@H]1CC[C@@H](CN2CCC3(CC2)CN(c2ncncc2Oc2ccc(F)cc2C(=O)N(C(C)C)[C@H]2CC[C@@H]2O)C3)OC1 (single isomer, unassigned) [Example 257] | 100 to 1000 nM |  |  |
| CC(C)N(CC(F)F)C(=O)c1cc(F)ccc1Oc1nncnc1N1CC2(CCN(C[C@@H]3CC[C@@H](NS(=O)(=O)c4cnn(C)c4)CO3)CC2)C1 [Example 187, N-(2,2-Difluoroethyl)-5-fluoro-N-isopropyl-2-((5-(7-(((2S,5R)-5-((1-methyl-1H-pyrazole)-4-sulfonamido)tetrahydro-2H-pyran-2-yl)methyl)-2,7-diazaspiro[3.5]nonan-2-yl)-1,2,4-triazin-6-yl)oxy)benzamide] | < 100 nM |  |  |
| CC(C)N(C(=O)c1cc(F)ccc1Oc1cncnc1N1CC2(CCN(C[C@@H]3CC[C@@H](NS(=O)(=O)c4ccc(=O)n(C)c4)CO3)CC2)C1)C(C)C [Example 92, 5-Fluoro-N,N-diisopropyl-2-((4-(7-(((2S,5R)-5-((1-methyl-6-oxo-1,6-dihydropyridine)-3-sulfonamido)tetrahydro-2H-pyran-2-yl)methyl)-2,7-diazaspiro[3.5]nonan-2-yl)pyrimidin-5-yl)oxy)benzamide] | < 100 nM |  |  |
| CC(C)N(CC(F)F)C(=O)c1cc(F)ccc1Oc1cncnc1N1CC2(CCN(C[C@@H]3CC[C@@H](NS(=O)(=O)N4CC(OCc5ccccc5)C4)CO3)CC2)C1 [Example 236, 2-((4-(7-(((2S,5R)-5-((3-(Benzyloxy)azetidine)-1-sulfonamido)tetrahydro-2H-pyran-2-yl)methyl)-2,7-diazaspiro[3.5]nonan-2-yl)pyrimidin-5-yl)oxy)-N-(2,2-difluoroethyl)-5-fluoro-N-isopropylbenzamide] | < 100 nM |  |  |
| CC(C)N(C(=O)c1cc(F)ccc1Oc1cncnc1N1CC2(CCN(C[C@@H]3CC[C@@H](NS(=N)(=O)C4CC4)CO3)CC2)C1)C(C)C (stereo partly drawn) [Example 233, 2-((4-(7-(((2S,5R)-5-(Cyclopropanesulfonoamidimidamido)tetrahydro-2H-pyran-2-yl)methyl)-2,7-diazaspiro[3.5]nonan-2-yl)pyrimidin-5-yl)oxy)-5-fluoro-N,N-diisopropylbenzamide] | < 100 nM |  |  |
| CC(C)N(C(=O)c1cc(F)ccc1Oc1nncnc1N1CC2(CCN(C[C@@H]3CC[C@@H](NS(=O)(=O)c4cnn(C)c4)CO3)CC2)C1)C(C)C [Example 197, 5-Fluoro-N,N-diisopropyl-2-((5-(7-(((2S,5R)-5-((1-methyl-1H-pyrazole)-4-sulfonamido)tetrahydro-2H-pyran-2-yl)methyl)-2,7-diazaspiro[3.5]nonan-2-yl)-1,2,4-triazin-6-yl)oxy)benzamide] | < 100 nM |  |  |
| CC(C)N(CC(F)(F)F)C(=O)c1cc(F)ccc1Oc1nncnc1N1CC2(CCN(C[C@@H]3CC[C@@H](NS(=O)(=O)c4cnn(C)c4)CO3)CC2)C1 [Example 192, 5-Fluoro-N-isopropyl-2-((5-(7-(((2R,5S)-5-((1-methyl-1H-pyrazole)-4-sulfonamido)tetrahydro-2H-pyran-2-yl)methyl)-2,7-diazaspiro[3.5]nonan-2-yl)-1,2,4-triazin-6-yl)oxy)-N-(2,2,2-trifluoroethyl)benzamide] | < 100 nM |  |  |
